Assay results reported in patent US20230151014A1 (Repare Therapeutics Inc., priority 2020, published 2023).
pIC50: −log10 of the molar value.

Target: T1, recombinant human Myt1 (Homo sapiens, UniProt Q99640)
T1 construct: full length PKMYT1 recombinant human protein expressed in insect cells
T1 sequence (Q99640 1-499): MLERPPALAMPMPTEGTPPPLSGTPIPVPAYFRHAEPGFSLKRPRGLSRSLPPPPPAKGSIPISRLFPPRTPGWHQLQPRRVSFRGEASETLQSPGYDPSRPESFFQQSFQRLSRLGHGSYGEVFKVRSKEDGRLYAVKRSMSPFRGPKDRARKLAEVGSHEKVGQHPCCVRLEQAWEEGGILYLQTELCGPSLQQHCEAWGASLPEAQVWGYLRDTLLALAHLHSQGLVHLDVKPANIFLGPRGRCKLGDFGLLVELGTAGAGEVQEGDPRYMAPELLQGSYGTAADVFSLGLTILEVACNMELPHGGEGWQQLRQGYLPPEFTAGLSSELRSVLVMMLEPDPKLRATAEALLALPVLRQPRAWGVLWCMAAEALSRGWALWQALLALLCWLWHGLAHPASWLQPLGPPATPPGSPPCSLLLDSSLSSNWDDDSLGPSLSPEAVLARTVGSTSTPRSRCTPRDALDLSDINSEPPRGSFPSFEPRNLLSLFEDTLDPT
Assay: Myt1 enzymatic assay (ADP-Glo kinase assay, IC50 and % max inhibition)
Format: biochemical
Conditions: recombinant human Myt1 18 nM, ATP 10 μM
Description: Detection of Myt1 kinase activity utilized a recombinant human Myt1 kinase assay measuring the hydrolysis of ATP using a commercially available ADP-Glo Assay (ADP-Glo™ Kinase Assay from Promega, 10 000 assays, #V9102). […] After this, 5 μL of compounds (diluted in reaction buffer to 0.5% DMSO) was added to the microplate and the plate was spun briefly and incubated at 22° C. for 15 minutes. Ultra-Pure Adenosine Triphosphate (ATP) solution (ADP-Glo kit from Promega) was diluted in reaction buffer and 5 μL was added to the microplate, spun down briefly and incubated for 60 minutes at 30° C. […] After the 60-minute incubation, 15 μL of ADP-Glo reagent was added and the plate was spun briefly and sealed and incubated in the dark for 40 minutes at 22° C. […] Luminescence was read using the Envision (250 ms integration). The IC50 and the % max inhibition were calculated for each inhibitor compound tested.

| pIC50 | SMILES |
| --- | --- |
| 7.80 | CCNC(=O)c1cnc2c(n1)c(C(N)=O)c(N)n2-c1c(C)ccc(O)c1C [Compound 244] |
| > 8.00 | Cc1ccc(O)c(C)c1-n1c(N)c(C(N)=O)c2cc(-c3nccs3)cnc21 [Compound 308] |
| > 8.00 | Cc1ccc(O)c(C)c1-n1c(N)c(C(N)=O)c2nc(C3=CCC(C(=O)N(C)C)CC3)cnc21 (stereo not drawn) [Compound 58] |
| > 8.00 | Cc1ccc(O)c(C)c1-n1c(N)c(C(N)=O)c2nc(-c3nccs3)c(C)nc21 [Compound 31, 6-amino-5-(3-hydroxy-2,6-dimethyl-phenyl)-3-methyl-2-thiazol-2-yl-pyrrolo[2,3-b]pyrazine-7-carboxamide] |
| > 8.00 | Cc1ccc(O)c(C)c1-n1c(N)c(C(N)=O)c2cc(C(C)C)cnc21 [Compound 138] |
| 7.68 | Cc1ccc(O)c(C)c1-n1c(N)c(C(N)=O)c2ncc(C#CC3CC3)nc21 [Compound 228] |
| > 8.00 | Cc1ccc(O)c(C)c1-n1c(N)c(C(N)=O)c2cc(N3CCCC3=O)cnc21 [Compound 298] |
| > 8.00 | Cc1ccc(O)c(C)c1-n1c(N)c(C(N)=O)c2nc(C3=CCCCC3)cnc21 [Compound 86] |
| > 8.00 | Cc1ccc(O)c(C)c1-n1c(N)c(C(N)=O)c2cc(Br)cnc21 [Compound 141] |
| 8.00 | Cc1ccc(O)c(C)c1-n1c(N)c(C(N)=O)c2nc(N3CCNC(=O)C3)cnc21 [Compound 66] |
| > 8.00 | Cc1ccc(O)c(C)c1-n1c(N)c(C(N)=O)c2nc(-c3cn(C)cn3)cnc21 [Compound 76] |
| 6.64 | Cc1ccc(O)c(C)c1-n1c(N)c(C(N)=O)c2nc(CCC3CCCN3)cnc21 (stereo not drawn) [Compound 2, 6-amino-5-(3-hydroxy-2,6-dimethylphenyl)-2-(2-(pyrrolidin-2-yl)ethyl)-5H-pyrrolo[2,3-b]pyrazine-7-carboxamide] |
| > 8.00 | Cc1ccc(O)c(C)c1-n1c(N)c(C(N)=O)c2nc(C(C)(C)F)cnc21 [Compound 178, 6-amino-2-(1-fluoro-1-methyl-ethyl)-5-(3-hydroxy-2,6-dimethyl-phenyl)pyrrolo[2,3-b]pyrazine-7-carboxamide] |
| > 8.00 | Cc1ccc(O)c(C)c1-n1c(N)c(C(N)=O)c2c(C)c(Cl)cnc21 [Compound 313] |
| > 8.00 | Cc1c(O)ccc(Cl)c1-n1c(N)c(C(N)=O)c2nc(-c3nccs3)cnc21 [Compound 42] |
| 5.50 | Cc1ccc(O)c(C)c1-n1c(N)c(C(N)=O)c2nc(-c3cccc(OC4CCOCC4)n3)cnc21 [Compound 258] |
| > 8.00 | Cc1ccc(O)c(C)c1-n1c(N)c(C(N)=O)c2nc(N3CCCCC3)cnc21 [Compound 81] |
| > 8.00 | Cc1ccc(O)c(C)c1-n1c(N)c(C(N)=O)c2nc(-c3ccc(F)cn3)cnc21 [Compound 64] |
| > 8.00 | Cc1ccc(O)c(C)c1-n1c(N)c(C(N)=O)c2nc(-c3cncs3)cnc21 [Compound 37] |
| > 8.00 | Cc1ccc(O)c(C)c1-n1c(N)c(C(N)=O)c2c(Cl)c(Cl)cnc21 [Compound 316] |
| 6.34 | Cc1ccc(O)c(C)c1-n1c(N)c(C(N)=O)c2nc(C#CC3CCCN3)cnc21 (stereo not drawn) [Compound 3] |
| 7.96 | Cc1ccc(O)c(C)c1-n1c(N)c(C(N)=O)c2nc(-c3ccn(C)n3)cnc21 [Compound 72] |
| 7.96 | Cc1ccc(O)c(C)c1-n1c(N)c(C(N)=O)c2nc(N3CCS(=O)(=O)CC3)cnc21 [Compound 75] |
| 7.30 | Cc1ccc(O)c(C)c1-n1c(N)c(C(N)=O)c2nc(C3CC3)c(C3CC3)nc21 [Compound 256] |
| 7.34 | Cc1ccc(O)c(C)c1-n1c(N)c(C(N)=O)c2nc(C#N)cnc21 [Compound 219, 6-amino-2-cyano-5-(3-hydroxy-2,6-dimethyl-phenyl)pyrrolo[2,3-b]pyrazine-7-carboxamide] |

Second part, the molecule before the results:

| SMILES | pIC50 |
| --- | --- |
| Cc1ccc(O)cc1-n1c(N)c(C(N)=O)c2ncc(C#Cc3cccnc3)nc21 [Compound 160, 6-amino-5-(5-hydroxy-2-methyl-phenyl)-3-[2-(3-pyridyl)ethynyl]pyrrolo[2,3-b]pyrazine-7-carboxamide] | 6.26 |
| Cc1ccc2c(C(N)=O)c(N)n(-c3c(C)ccc(O)c3C)c2n1 [Compound 193] | > 8.00 |
| Cc1ccc(O)cc1-n1c(N)c(C(N)=O)c2ncc(CCCN3CCOCC3)nc21 [Compound 161] | 6.17 |
| Cc1ccc(O)c(C)c1-n1c(N)c(C(N)=O)c2ncc(C#C[C@@H]3OCC[C@@H]3Cl)nc21 [Compound 233] | 8.00 |
| Cc1ccc(O)c(C)c1-n1c(N)c(C(N)=O)c2cc(Br)c(C)nc21 [Compound 187] | > 8.00 |
| Cc1ccc(O)cc1-n1c(N)c(C(N)=O)c2nccnc21 [Compound 146] | 5.85 |
| Cc1ccc(O)cc1-n1c(N)c(C(N)=O)c2nc(-c3cccc(F)n3)ccc21 [Compound 25] | 6.40 |
| Cc1ccc(O)cc1-n1c(N)c(C(N)=O)c2nc(-c3ccc(C(=O)O)cc3)ccc21 [Compound 10] | 6.73 |
| Cc1ccc(O)cc1-n1c(N)c(C(N)=O)c2nc(-c3cn[nH]c3)ccc21 [Compound 5] | 6.56 |
| Cc1ccc(O)c(C)c1-n1c(N)c(C(N)=O)c2ncc(C#CCC3CCOCC3)nc21 [Compound 222] | > 8.00 |
| Cc1ccc(O)cc1-n1c(N)c(C(N)=O)c2nc(-c3cccc(CC(=O)O)c3)ccc21 [Compound 20] | 6.74 |
| Cc1ccc(O)c(C)c1-n1c(N)c(C(N)=O)c2ncc(C#Cc3ccccc3)nc21 [Compound 230] | 6.43 |
| Cc1ccc(O)c(C)c1-n1c(N)c(C(N)=O)c2nc(N3CCC(N4CCOCC4)CC3)cnc21 [Compound 74] | 7.85 |
| Cc1ccc(O)c(Cl)c1-n1c(N)c(C(N)=O)c2cc(Cl)cnc21 [Compound 327] | > 8.00 |
| Cc1ccc(O)cc1-n1c(N)c(C(N)=O)c2nc(CCCN3CCOCC3)ccc21 [Compound 18, 2-amino-1-(5-hydroxy-2-methyl-phenyl)-5-(3-morpholinopropyl)pyrrolo[3,2-b]pyridine-3-carboxamide] | 5.71 |
| Cc1ccc(O)cc1-n1c(N)c(C(N)=O)c2nc(NCc3ccccc3)cnc21 [Compound 282] | 6.20 |
| Cc1ccc(O)c(C)c1-n1c(N)c(C(N)=O)c2ncc(C#CC3(O)CCOCC3)nc21 [Compound 231] | > 8.00 |
| Cc1ccc(O)c(C)c1-n1c(N)c(C(N)=O)c2cc(C(F)(F)F)cnc21 [Compound 221, 2-amino-1-(3-hydroxy-2,6-dimethyl-phenyl)-5-(trifluoromethyl)pyrrolo[2,3-b]pyridine-3-carboxamide] | 7.09 |
| COC(C)(C)C#Cc1cnc2c(C(N)=O)c(N)n(-c3c(C)ccc(O)c3C)c2n1 [Compound 238] | 8.00 |
| Cc1ccc(O)c(C)c1-n1c(N)c(C(N)=O)c2ncc(C#CCC3(O)CCOCC3)nc21 [Compound 237] | 7.72 |
| Cc1ccc(O)c(C)c1-n1c(N)c(C(N)=O)c2ncc(C#CC(C)(C)NS(C)(=O)=O)nc21 [Compound 223] | 7.82 |
| Cc1ccc(O)c(C)c1-n1c(N)c(C(N)=O)c2nc(-c3nccs3)c(C#CC3CC3)nc21 [Compound 214, 6-amino-3-(2-cyclopropylethynyl)-5-(3-hydroxy-2,6-dimethyl-phenyl)-2-thiazol-2-yl-pyrrolo[2,3-b]pyrazine-7-carboxamide] | 6.87 |
| Cc1ccc(O)cc1-n1c(N)c(C(N)=O)c2ncc(-c3cn[nH]c3)nc21 [Compound 155] | 5.99 |
| Cc1ccc(O)c(C)c1-n1c(N)c(C(N)=O)c2nc(-c3nccs3)c(C#CCN3CCOCC3)nc21 [Compound 216] | 7.12 |
| Cc1ccc(O)cc1-n1c(N)c(C(N)=O)c2ncc(C#CCN3CCOCC3)nc21 [Compound 163] | 6.48 |
| Cc1ccc(O)c(C)c1-n1c(N)c(C(N)=O)c2cccnc21 [Compound 328] | > 8.00 |
| Cc1ccc(O)cc1-n1c(N)c(C(N)=O)c2ncc(-c3ccccc3)nc21 [Compound 150, 6-amino-5-(5-hydroxy-2-methyl-phenyl)-3-phenyl-pyrrolo[2,3-b]pyrazine-7-carboxamide] | 5.87 |
| Cc1ccc(O)c(C)c1-n1c(N)c(C(N)=O)c2cc(C(C)(C)O)cnc21 [Compound 131] | > 8.00 |
| Cc1ccc(O)cc1-n1c(N)c(C(N)=O)c2nc(-c3cccc(C#N)c3)ccc21 [Compound 14] | 6.32 |
